According to patent US4051237A, “Glycopeptide antibiotics Bu-2231 A and B and process for producing same” (priority 1975, dated 1977):

Key:
Test in all cases: MIC by two-fold agar dilution
Type in all cases: cell-based
E. coli Juhl A15119 = conditions: Mueller-Hinton agar, unit assumed
E. coli K-12 A9632 = conditions: Mueller-Hinton agar, unit assumed
E. coli A20665 = conditions: Mueller-Hinton agar, unit assumed
E. coli A20683 = conditions: Mueller-Hinton agar, unit assumed
E. cloacae A21006 = conditions: Mueller-Hinton agar, unit assumed
K. pneumoniae D11 = conditions: Mueller-Hinton agar, unit assumed
K. pneumoniae A20680 = conditions: Mueller-Hinton agar, unit assumed
P. vulgaris A9436 = conditions: Mueller-Hinton agar, unit assumed
P morganii A9553 = conditions: Mueller-Hinton agar, unit assumed
P. mirabilis A9554 = conditions: Mueller-Hinton agar, unit assumed
P. rettgeri A15167 = conditions: Mueller-Hinton agar, unit assumed
P. stuartii A20734 = conditions: Mueller-Hinton agar, unit assumed
S. marcescens A20019 = conditions: Mueller-Hinton agar, unit assumed
S. marcescens A20333 = conditions: Mueller-Hinton agar, unit assumed
S. marcescens A21235 = conditions: Mueller-Hinton agar, unit assumed
P. aeruginosa A 9923 = conditions: Mueller-Hinton agar, unit assumed
P. aeruginosa H9, D113 = conditions: Mueller-Hinton agar, unit assumed
P. aeruginosa A20741 = conditions: Mueller-Hinton agar, unit assumed
S. aureus Smith A9537 = conditions: Mueller-Hinton agar, unit assumed
S. aureus #193 = conditions: Mueller-Hinton agar, unit assumed
S. aureus A20239 = conditions: Mueller-Hinton agar, unit assumed
S. aureus BX-1633,A9606 = conditions: Mueller-Hinton agar, unit assumed
S. lutea PCI-1001 = conditions: Mueller-Hinton agar, unit assumed
M. flavus D12 = conditions: Mueller-Hinton agar, unit assumed
B. sphaericus #122 = conditions: Mueller-Hinton agar, unit assumed
B. subtilis PCI-219 = conditions: Mueller-Hinton agar, unit assumed
Mycobacterium 607, D87 = conditions: Medium #1001, unit assumed
Mycobacterium 607, D46 = conditions: Medium #1001, unit assumed
Mycobacterium 607, D47 = conditions: Medium #1001, unit assumed
Mycobacterium phlei, D88 = conditions: Medium #1001, unit assumed
C. albicans IAM 4888 = conditions: Ca-1 C. albicans IAM 4888; sabouraud agar; unit assumed
C. albicans Nystatin-R = conditions: Ca-2 C. albicans Nystatin-R; sabouraud agar; unit assumed
[1] = test system: C. albicans #520 Yale A9540; conditions: Ca-4 C. albicans #520 Yale A9540; sabouraud agar; unit assumed
C. krusei IAM 4489 = conditions: Ck-1 C. krusei IAM 4489; sabouraud agar; unit assumed
C. krusei #96 A15052 = conditions: Ck-2 C. krusei #96 A15052; sabouraud agar; unit assumed
C. neoformans (Cn-1) = conditions: Cn-1 C. neoformans; sabouraud agar; unit assumed
S. cerevisiae ATCC 9763 = conditions: Sc-1 S. cerevisiae ATCC 9763; sabouraud agar; unit assumed
S. cerevisiae IAM 4009 = conditions: Sc-2 S. cerevisiae IAM 4009; sabouraud agar; unit assumed
A. fumigatus IAM 2530 = conditions: Af-1 A. fumigatus IAM 2530; sabouraud agar; unit assumed
Hormodendrum sp. = conditions: Hy-1 Hormodendrum sp.; sabouraud agar; unit assumed
Sporotrichum sp. = conditions: Sy-1 Sporotrichum sp.; sabouraud agar; unit assumed
Verticillium sp. = conditions: Vx-1 Verticillium sp.; sabouraud agar; unit assumed
Mucor sp. = conditions: My-1 Mucor sp.; sabouraud agar; unit assumed
P. citrinum IAM 7008 = conditions: Pt-1 P. citrinum IAM 7008; sabouraud agar; unit assumed
T. asteroides = conditions: Ta-1 T. asteroides; sabouraud agar; unit assumed
T. rubrum D-55 = conditions: Tr-1 T. rubrum D-55; sabouraud agar; unit assumed

Measured: MIC

Bleomycin [reference compound]
0.2 µg/mL: E. coli A20665 | K. pneumoniae D11 | Mycobacterium 607, D46 | Mycobacterium phlei, D88
50 µg/mL: P. mirabilis A9554 | M. flavus D12
6.3 µg/mL: P. vulgaris A9436 | S. aureus BX-1633,A9606 | B. sphaericus #122 | Verticillium sp.
0.8 µg/mL: E. coli K-12 A9632 | Mycobacterium 607, D87 | S. cerevisiae ATCC 9763 | A. fumigatus IAM 2530 | Hormodendrum sp.
12.5 µg/mL: P. aeruginosa A20741 | S. aureus #193 | S. aureus A20239 | C. albicans IAM 4888 | C. albicans Nystatin-R | C. krusei IAM 4489
< 0.0063 µg/mL: B. subtilis PCI-219
1.6 µg/mL: E. coli Juhl A15119 | C. neoformans (Cn-1)
0.4 µg/mL: Mycobacterium 607, D47 | S. cerevisiae IAM 4009
100 µg/mL: S. marcescens A21235 | S. lutea PCI-1001
3.1 µg/mL: S. aureus Smith A9537 | C. krusei #96 A15052 | Mucor sp.
> 100 µg/mL: all other assays above

Phleomycin [reference compound]
0.1 µg/mL: S. aureus Smith A9537 | Mycobacterium phlei, D88
0.4 µg/mL: E. coli A20665 | K. pneumoniae D11 | S. aureus A20239 | S. aureus BX-1633,A9606 | S. lutea PCI-1001 | B. sphaericus #122 | Mycobacterium 607, D87 | C. neoformans (Cn-1)
1.6 µg/mL: E. coli Juhl A15119 | E. coli K-12 A9632 | P. mirabilis A9554 | P. stuartii A20734 | C. albicans Nystatin-R
> 100 µg/mL: E. coli A20683 | K. pneumoniae A20680 | P. aeruginosa A 9923 | P. aeruginosa H9, D113
3.1 µg/mL: P. rettgeri A15167 | C. albicans IAM 4888 | Mucor sp. | P. citrinum IAM 7008 | T. rubrum D-55
6.3 µg/mL: P morganii A9553 | P. aeruginosa A20741 | [1] | Verticillium sp. | T. asteroides
12.5 µg/mL: Sporotrichum sp.
< 0.0063 µg/mL: B. subtilis PCI-219
50 µg/mL: E. cloacae A21006
0.2 µg/mL: S. aureus #193 | M. flavus D12 | Mycobacterium 607, D46 | Mycobacterium 607, D47
0.8 µg/mL: all other assays above
